The data set is described as follows: activity coefficient (dimensionless); of the first substance listed, at infinite dilution; xn = mol fraction of the nth substance listed. Particulars: 101.3 kPa, Liquid, Chromatography, x1 = 0.

± gives the expanded uncertainty stated by the source.

Turning to `CC1CCCCC1` [methylcyclohexane] + CCn1cc[n+](C)c1.COP(=O)([O-])OC, the activity coefficient is 77.7 ± 8.2 (313.15 K); 68.3 ± 7.2 (323.15 K); 61.5 ± 6.5 (333.15 K); 55.9 ± 5.9 (343.15 K); 50.5 ± 5.3 (353.15 K); 45.5 ± 4.8 (363.15 K).
For `CC1CCCCC1` [methylcyclohexane] + COP(=O)([O-])OC.Cn1cc[n+](C)c1, the activity coefficient by setting is: (313.15 K) 83.4 ± 8.8; (323.15 K) 80.8 ± 8.5; (333.15 K) 78.3 ± 8.2; (343.15 K) 75.4 ± 7.9; (353.15 K) 73 ± 7.7; (363.15 K) 69.9 ± 7.4.
As to `CCCCCCCCC` [nonane] + CCn1cc[n+](C)c1.COP(=O)([O-])OC, the activity coefficient worked out at 272 ± 29 (313.15 K); 243 ± 26 (323.15 K); 225 ± 24 (333.15 K); 207 ± 22 (343.15 K); 197 ± 21 (353.15 K); 182 ± 19 (363.15 K).
As for `CCCCCCCCC` [nonane] + COP(=O)([O-])OC.Cn1cc[n+](C)c1, the activity coefficient by setting is: (313.15 K) 400 ± 42; (323.15 K) 384 ± 40; (333.15 K) 368 ± 39; (343.15 K) 351 ± 37; (353.15 K) 345 ± 36; (363.15 K) 327 ± 34.
On to `CCCCCCCC` [octane] + CCn1cc[n+](C)c1.COP(=O)([O-])OC, for which the activity coefficient reads like this: (313.15 K) 202 ± 21; (323.15 K) 187 ± 20; (333.15 K) 173 ± 18; (343.15 K) 158 ± 17; (353.15 K) 144 ± 15; (363.15 K) 132 ± 14.
Take `CCCCCCCC` [octane] + COP(=O)([O-])OC.Cn1cc[n+](C)c1: the activity coefficient amounted to 340 ± 36 (313.15 K); 325 ± 34 (323.15 K); 302 ± 32 (333.15 K); 285 ± 30 (343.15 K); 270 ± 28 (353.15 K); 248 ± 26 (363.15 K).
Take `CCCCC` [pentane] + CCn1cc[n+](C)c1.COP(=O)([O-])OC: the activity coefficient (313.15 K) was 125 ± 13; the activity coefficient (323.15 K) stood at 106 ± 11; the activity coefficient (333.15 K) worked out at 88.5 ± 9.3; the activity coefficient (343.15 K) was 69.8 ± 7.4; the activity coefficient (353.15 K) was 60.5 ± 6.4; the activity coefficient (363.15 K) was determined as 52.9 ± 5.6.
Regarding `CCCCC` [pentane] + COP(=O)([O-])OC.Cn1cc[n+](C)c1, the activity coefficient amounted to 245 ± 26 (313.15 K); 230 ± 24 (323.15 K); 217 ± 23 (333.15 K); 201 ± 21 (343.15 K); 184 ± 19 (353.15 K); 170 ± 18 (363.15 K).
Take `C=Cc1ccccc1` [styrene] + CCn1cc[n+](C)c1.COP(=O)([O-])OC: the activity coefficient (313.15 K) worked out at 5.45 ± 0.57; the activity coefficient (323.15 K) worked out at 5.29 ± 0.56; the activity coefficient (333.15 K) was 5.16 ± 0.54; the activity coefficient (343.15 K) worked out at 5.01 ± 0.53; the activity coefficient (353.15 K) came to 4.86 ± 0.51; the activity coefficient (363.15 K) came to 4.71 ± 0.49.
As to `C=Cc1ccccc1` [styrene] + COP(=O)([O-])OC.Cn1cc[n+](C)c1, the activity coefficient was determined as 6.62 ± 0.7 (323.15 K); 6.61 ± 0.69 (333.15 K); 6.6 ± 0.69 (343.15 K); 6.58 ± 0.69 (353.15 K); 6.57 ± 0.69 (363.15 K).
For the molecule `Cc1ccccc1` [toluene] + CCn1cc[n+](C)c1.COP(=O)([O-])OC, the activity coefficient turned out to be 6.45 ± 0.68 (313.15 K); 6.14 ± 0.65 (323.15 K); 5.94 ± 0.62 (333.15 K); 5.73 ± 0.6 (343.15 K); 5.56 ± 0.58 (353.15 K); 5.4 ± 0.57 (363.15 K).
On to `Cc1ccccc1` [toluene] + COP(=O)([O-])OC.Cn1cc[n+](C)c1, for which the activity coefficient was determined as 7.57 ± 0.8 (313.15 K); 7.54 ± 0.79 (323.15 K); 7.51 ± 0.79 (333.15 K); 7.48 ± 0.79 (343.15 K); 7.47 ± 0.79 (353.15 K); 7.45 ± 0.78 (363.15 K).

Values taken from the NIST ThermoML archive (doi:10.1016/j.jct.2015.07.046).
